Measurements: article PMC7842235 (Journal of proteome research, 2020)

Biological target: T1, Tryp-N (Thermochaetoides thermophila, UniProt G0SEK4)
T1 sequence (G0SEK4 68-292): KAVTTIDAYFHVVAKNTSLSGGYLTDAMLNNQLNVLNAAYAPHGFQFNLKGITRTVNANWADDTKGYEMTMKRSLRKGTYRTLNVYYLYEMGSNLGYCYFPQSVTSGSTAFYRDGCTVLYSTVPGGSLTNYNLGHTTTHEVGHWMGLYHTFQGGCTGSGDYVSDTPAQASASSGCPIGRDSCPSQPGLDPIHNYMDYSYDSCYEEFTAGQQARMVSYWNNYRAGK
Assay: protease activity assay, probably FITC-labeled casein
Type: biochemical

IC50: ~500 µM
Compound: N=C(N)c1ccccc1 [benzamidine]
